Experimental data from patent publication US8642337B2, “Defined surfaces of self-assembled monolayers and stem cells” (Wisconsin Alumni Research Foundation, priority 2005, dated 2014).
No end group written: not given here.

How the values were obtained:
[1] = tested on: SH-SY5Y neuroblastoma cells; assay: Neuroblastoma adhesion on patterned SAM chips/arrays; format: cell-based
Procedure: (§1) General Preparation of the Arrays of Self-Assembled Monolayers (Assembly After Conjugation Strategy): Chromium (1 nm) and then gold (25 nm) were evaporated onto piranha-cleaned glass coverslips (Corning No […], 23 mm squares) using a thermal evaporator (Denton Vacuum, Moorestown, N.J.). Substrates were immediately immersed into a 1 mM solution of fluoro-AT in absolute ethanol. After twenty-four hours, substrates were thoroughly rinsed with ethanol and dried under a stream of nitrogen. Coverslips with fluoro-AT SAM were irradiated with UV-light (1 kW, Hg—Xe Research Arc Lamp, Oriel Instruments (Spectra-Physics, Stratford, Conn.) through a quartz photomask (array of 500 μm or 750 μm squares, 0.067 quartz-chromium mask (Photo Sciences, Torrance, Calif.)) for 1 hour. Irradiated samples were rinsed thoroughly using several repetitive washes with absolute ethanol and distilled water and dried under a steam of nitrogen. Spotting of AT solutions onto the bare gold areas was performed within two hours of the photolithography. Spotting was performed manually using a P2-Pipetman (Gilson) in a humidity chamber. Spotted arrays were stored in the humidity chamber for twelve hours and thoroughly washed using repeated washes with ethanol and water. Rapid flow during washing was used to prevent cross-contamination of array spots.
Cell Culture: A neuroblastoma cell line, SH-SY5Y, was grown in 10% heat-inactivated fetal bovine serum (HI FBS), 45% high glucose Dulbecco's modified Eagle medium (DMEM), 45% Ham's F12 nutritional supplement (F12) with penicillin and streptomycin in an atmosphere of 5% CO2 at 37° C. A fibroblast cell line, Swiss 3T3, was propagated in 10% HI FBS in DMEM. For plating of the cells on the chips, cells were incubated at 37° C. with 5% trypsin/ethylenediamine-tetraacetic acid (EDTA), centrifuged and resuspended in media at 2×10^5 cells/mL and 5×10^5 cells/mL for the fibroblasts and neuroblastomas, respectively. Chips were sterilized by placing each in a single well of a 6-well plate, soaking in 70% ethanol, and drying under UV light for 1 hour. To the individual chips was added 3 mL of the cell suspensions to each well. After 2-5 hours, the media was gently replaced three times and the chips were picked up, transferred to a clean well and 3 mL of media was added. The cells on the chips were typically propagated between 1-7 days. The media was then removed, and the cells were fixed in PFA buffer (2% paraformaldehyde, 350 mM NaCl, 150 mM HEPES, 10 mM CaCl2, pH 7.4) for 20 minutes at 0° C. The cells were washed twice with Dulbecco's phosphate buffered saline and stained (0.1% Coomassie Brilliant Blue in H2O/MeOH/AcOH (50:50:1)) for 5-15 minutes after which the cells were washed twice with water and air dried. […]

[2] = tested on: Swiss 3T3 fibroblast cells; assay: Fibroblast adhesion on patterned SAM chips/arrays; format: cell-based
Procedure: as §1
Cell Culture: A neuroblastoma cell line, SH-SY5Y, was grown in 10% heat-inactivated fetal bovine serum (HI FBS), 45% high glucose Dulbecco's modified Eagle medium (DMEM), 45% Ham's F12 nutritional supplement (F12) with penicillin and streptomycin in an atmosphere of 5% CO2 at 37° C. A fibroblast cell line, Swiss 3T3, was propagated in 10% HI FBS in DMEM. For plating of the cells on the chips, cells were incubated at 37° C. with 5% trypsin/ethylenediamine-tetraacetic acid (EDTA), centrifuged and resuspended in media at 2×10^5 cells/mL and 5×10^5 cells/mL for the fibroblasts and neuroblastomas, respectively. Chips were sterilized by placing each in a single well of a 6-well plate, soaking in 70% ethanol, and drying under UV light for 1 hour. […]

hES cells = assay: FACS analysis of ES cells proliferated on large areas presenting synthetic substrates (one-component SAMs); format: cell-based, human; details: for Oct4 (% population): FACS, ES cells on one-component SAMs on 22×22 mm gold-coated substrates, after 1 week
Source text: Examination of the cell population within an array element provides a semi-quantitative indication of differentiation state of the ES cells. More rigorous analysis involves fluorescence-activated cell sorting (FACS) measurements to identify what population of the cells express specific markers of pluripotent stem cells. Therefore, we proliferated hES cells on gold-coated substrates of larger area (22×22 mm) containing one-component SAMs. FIG. 2a illustrate a representative FACS analysis of an ES cell population grown on a synthetic substrate after 1 week. Table 1 outlines the percentages of Oct4 positive cells obtained from each particular substrate. […] Specifically, we tested hES cell line H9 grown in synthetic media supplemented with high concentrations of basic FGF (referred to as UM100, indicating presence of […] of FGF-2 among the other components). Importantly, these conditions support growth of undifferentiated hES cells on Matrigel®.

hES cells (H1B) = assay: Differentiation experiment: Oct-4 immunofluorescence on peptide surface arrays; format: cell-based, human; details: cultured on arrays thirteen days
Source text: Differentiation Experiment: SIDQVEPYSSTAQ (FGF, SEQ ID NO:8) is known to bind FGF receptor. FGF signaling, in turn, can suppress hES cell differentiation. […] (SEQ ID NO:9) is known to bind BMP-receptor. BMP signaling induces hES cell differentiation. KKQRFRHRNRKG (VHB, SEQ ID NO:10) is a heparin binding motif from vitronectin. Vitronectin supports hES cell adhesion. RGD peptide is known to bind cell surface receptors (integrins) involved in adhesion of various cell types.
hES cells (H1B) were passaged using the protease dispase from Matrigel® to the peptide surface arrays described above containing either BMP/RGD, BMP/VHB, FGF, FGF/RGD or FGF/VHB at various concentrations. hES cells were cultured on the arrays for thirteen days, fixed and stained by immunofluorescence. The cells were stained for a marker of pluripotency, Oct-4 (Green), and counterstained with DAPI (Blue).

hES cells (H1 and H9) = assay: hES cell adhesion and growth screen on arrays of SAMs presenting peptides; format: cell-based, human; details: for Ability to support ES cell growth: laminin fragment screen on SAM array
Procedure: Human Embryonic Stem Cell Propagation and Plating: The human ES cell line, H1, was grown on Matrigel®-coated plates in MEF-CM supplemented with 4 ng/mL basic fibroblast growth factor (bFGF). To produce CM, MEFs were seeded at a density of 2.12×10^5 cells/mL and fed medium consisting of DMEM/F12, 20% Knockout™ serum replacement, 2 mM L-glutamine, 1% minimal essential media nonessential amino acids and 0.1 mM β-mercaptoethanol. Both cell lines (H1 and MEF) were maintained at 37° C./5% CO2 with CM collected, and cells fed approximately every 24 hours. Cell suspensions were made by treating with collagenase IV (1 mg/mL) for 10-12 minutes. The cells were scraped from the surface and suspended in CM.
Chips were sterilized as described above. To aid in ES cell patterning, the chips were then soaked in DMEM/F12 with 15% defined FBS for 1-2 hours and washed thoroughly. Then cells were plated on each chip (1-2×10^6 cells/chip) and allowed to incubate overnight. The next morning the chips were moved to fresh wells and fed with CM.
Test for alkaline phosphatase activity: The procedure for staining for alkaline phosphatase activity was essentially identical to the procedure supplied by the manufacturer. After propagation of the ES cells, the media was removed. The reagents in 100 mM Tris pH 8.5 were incubated with the chips for 30 minutes at 25° C. The chips were washed gently for 5 min with Tris buffer and then fixed and dried as usual.
We tested arrays of SAMs presenting a number of short peptides for their ability to support the growth of undifferentiated hES cells. The screen was done with the array presenting square elements of 0.5×0.5 mm (FIG. 1b) or 0.8×0.8 mm size (FIG. 1c). The 0.5×0.5 mm allowed 196 binding elements to be located on a single 22 mm square chip, and in turn the chip can easily fit in one well of a six-well culture plate. The ability of microarrays to localize multiple experiments to same a solution environment is invaluable for applications requiring frequent maintenance. For example, cultures of undifferentiated ES cell require daily changes of growth media. These changes can be easily performed on the entire microarray in one large well of a cell culture plate. For comparison, daily maintenance of experiments, on the same scale, performed in two 96-well plates, while practical, would require either significant human labor or specialized robotic equipment to function in a sterile environment to perform daily maintenance.
Cells grown on Matrigel® were detached using collagenase treatment and were plated on the microarray chip in the presence of CM. After twenty-four hours, media was replaced to remove dead and non-adherent cells. Attached cells were allowed to proliferate on the chip for five to six days and were supplement with fresh conditioned growth media daily. The experiment was stopped once cells reached 100% density in several (but not all) array elements. If continued, the cells in the array elements presenting 100% cell density usually detached, yielding square-shaped sheets of cells floating in solution, while cells in the other elements continued proliferation (not shown). This observation is consistent with those made earlier indicating cell growth variability in multi-component arrays and importance of the balanced duration of the experiment. Once the experiment was stopped, the cells were fixed and stained for markers of hES cell pluripotency. […]

O=C(O)COCCOCCOCCOCCOCCCCCCCCCCCS [PEG acid-AT]
Measured cell adhesion versus mole fraction of acid ([1]; SH-SY5Y, PEG acid-AT diluted with polyol-AT in spotting solutions): decreased as the mole fraction of the acid in the spotting solutions approached 0.2
Cell binding to spotted SAM ([1]; SH-SY5Y, SAMs formed by spotting AT solutions on bare gold squares): cells affixed to only the expected cytophilic surface
Cell growth on surface ([1]; SH-SY5Y, chips with fluoro-AT SAM background and PEG acid-AT squares made by immersion): dense squares of cells
Measured cell adhesion versus mole fraction of acid ([2]; Swiss 3T3, PEG acid-AT diluted with polyol-AT in spotting solutions): decreased as the mole fraction of the acid in the spotting solutions approached 0.2
Cell growth on surface ([2]; Swiss-3T3, chips with fluoro-AT SAM background and PEG acid-AT squares made by immersion): dense squares of cells

DIRVTLNRL (not fully specified (C-terminus); also: alkane thiol SAM)
Oct4 (% population) (hES cells): 99.62 % population

DITYVRLKF (not fully specified (C-terminus); also: alkane thiol SAM)
Oct4 (% population) (hES cells): 99.78 % population
Oct4 expression by FACS (hES cells; hES cell line H9, UM100 media (100 mg/ml of FGF-2), 1 week of culture): high level of Oct4 expression

FGF: peptide known to bind FGF receptor (SIDQVEPYSSTAQ)
hES cell self-renewal / Oct-4 expression (hES cells (H1B)): no longer express Oct-4

GNRWHSIYITRFG
Ability to support ES cell growth (hES cells (H1 and H9)): support ES cell growth

GRNIAEIIKDI (not fully specified (C-terminus); also: alkane thiol SAM)
Oct4 (% population) (hES cells): 98.12 % population
Cell binding to peptide on surface density gradient array (hES cells (H1 and H9); H1 cells, peptide-AT co-assembled with glucamine-AT): exhibits specific binding

GRYVVLPR (not fully specified (C-terminus); also: alkane thiol SAM)
Oct4 (% population) (hES cells): 98.99 % population

SDPGYIGSR (not fully specified (C-terminus); also: SAM immobilized) [laminin peptide containing YIGSR recognition motif, presented on SAM in either orientation]
ES cell adhesion (hES cells (H1 and H9); N-to-C orientation exposing YIGSR moiety): supports cell adhesion for ES cells, albeit with moderate reproducibility
ES cell adhesion (hES cells (H1 and H9); switched surface orientation, exposing SDPG-portion, same plating environment): obliterates cell adhesion

YIGSR: sequence found in the matrix protein laminin, presented as peptide-AT array element (not fully specified (C-terminus); also: AT array conjugate) [reference compound]
Cell adherence to peptide array element ([1]; neuroblastoma cells, mixtures of polyol-AT and peptide-AT spotted): adhered
Ability to support ES cell growth (hES cells (H1 and H9)): support ES cell growth
Cell binding to peptide array element ([2]; fibroblasts, mixtures of polyol-AT and peptide-AT spotted): bound modestly
